Assay results from patent US20250206760A1, “NITROGEN-CONTAINING HETEROCYCLIC COMPOUND, PREPARATION METHOD THEREFOR, AND PHARMACEUTICAL APPLICATION THEREOF” (Jiangsu Hengrui Pharmaceuticals Co., Ltd., priority 2022, published 2025).

Experiments:
Format in all cases: cell-based
[1] = test system: HER2 A775_G776insYVMA mutant Ba/F3; assay: Ba/F3 cell proliferation assay, HER2 A775_G776insYVMA mutant; conditions: Mus musculus, BaF3, 72 h, Celltiter-Glo cell viability; for GI50: read-out: HER2 A775_G776 ins YVMA/BaF3 GI50; for Emax: read-out: HER2 A775_G776 ins YVMA/BaF3 Imax %
Method: (§1) EGFR wild-type Ba/F3 cells (Cobioer, Cat. No. CBP73110) in the logarithmic growth phase were seeded into a 96-well plate at 2.5×10^3 cells/[…] in a growth medium, and HER2 wild-type Ba/F3 cells (Cobioer, Cat. No. CBP73110) or HER2 A775_G776insYVMA mutant Ba/F3 (Cobioer, Cat. No. CBP73184) in the logarithmic growth phase were seeded into a 96-well plate at 5×10^3 cells/100 μL in a growth medium.
(§2) The plates were placed in a cell incubator at 37° C. overnight. The compound diluted in 3-fold gradient with a medium was added to the plates at 100 μL/well the next day. All treatments were performed in triplicate. The plates were cultured in the cell incubator at 37° C. for another 72 h. Celltiter-Glo Luminescent cell viability assay was performed.
(§3) The cell proliferation rate corresponding to each well was calculated according to the following formula: proliferation %=(test compound well G3-GO average value)/(DMSO control well G3 average value -GO average value)×100. According to the corresponding proliferation rate and concentration of each gradient concentration well, a gradient curve of cell proliferation was fitted using Prism Graphpad software, and GI50 (GI50 is defined as the concentration of a compound corresponding to the cell proliferation inhibition rate of 50%) of the compound was calculated.

[2] = test system: EGFR wild-type Ba/F3 cells; assay: Ba/F3 cell proliferation assay, EGFR wild-type; conditions: 72 h, Celltiter-Glo cell viability; for GI50: Mus musculus, BaF3, read-out: EGFR WT/BaF3 GI50
Method: as §1, §2, §3

[3] = test system: HER2 wild-type Ba/F3 cells; assay: Ba/F3 cell proliferation assay, HER2 wild-type; conditions: Mus musculus, BaF3, 72 h, Celltiter-Glo cell viability; for GI50: read-out: HER2 WT/BaF3 GI50; for Emax: read-out: HER2 WT/BaF3 Imax %
Method: as §1, §2, §3

| SMILES | GI50 [1] [nM] | Emax [1] [%] | EGFR WT/BaF3 Imax % [2] [%] | GI50 [2] [nM] | GI50 [3] [nM] | Emax [3] [%] |
| --- | --- | --- | --- | --- | --- | --- |
| C=CC(=O)N1[C@@H]2CC[C@H]1C[C@@H](Oc1cc3c(Nc4ccc(Oc5ccn6ncnc6c5)c(C)c4)ncnc3cn1)C2 [Example 16, 1-(endo-3-((4-((4-([1,2,4]Triazolo[1,5-a]pyridin-7-yloxy)-3-methylphenyl)amino)pyrido[3,4-d]pyrimidin-6-yl)oxy)-8-azabicyclo[3.2.1]octan-8-yl)prop-2-en-1-one] | 15.7 | 100 | 73 | 7350 | 9 | 100 |
| C=CC(=O)N1[C@@H]2CC[C@H]1C[C@H](Oc1cc3c(Nc4ccc(Oc5ccn6ncnc6c5)c(C)c4)ncnc3cc1OC)C2 [Example 6, 1-(exo-3-((4-((4-([1,2,4]Triazolo[1,5-a]pyridin-7-yloxy)-3-methylphenyl)amino)-7-methoxyquinazolin-6-yl)oxy)-8-azabicyclo[3.2.1]octan-8-yl)prop-2-en-1-one] | 21.4 | 100 | – | – | 25.2 | 100 |
| C=CC(=O)N1[C@@H]2CC[C@H]1C[C@H](Oc1cc3c(Nc4ccc(Oc5ccn6ncnc6c5)c(C)c4F)ncnc3cc1OC)C2 [Example 13, 1-(exo-3-((4-((4-([1,2,4]Triazolo[1,5-a]pyridin-7-yloxy)-2-fluoro-3-methylphenyl)amino)-7-methoxyquinazolin-6-yl)oxy)-8-azabicyclo[3.2.1]octan-8-yl)prop-2-en-1-one] | 8.2 | 100 | – | – | 4.8 | 100 |
| C=CC(=O)N1[C@@H]2CC[C@H]1C[C@H](Oc1cc3c(Nc4ccc(Oc5ccn6ncnc6c5)c(C)c4F)ncnc3cn1)C2 [Example 21, 1-(exo-3-((4-((4-([1,2,4]Triazolo[1,5-a]pyridin-7-yloxy)-2-fluoro-3-methylphenyl)amino)pyrido[3,4-d]pyrimidin-6-yl)oxy)-8-azabicyclo[3.2.1]octan-8-yl)prop-2-en-1-one] | 10.4 | 100 | 100 | 913 | 5.3 | 100 |
| C=CC(=O)N1[C@@H]2CC[C@H]1C[C@@H](Oc1cc3c(Nc4ccc(Oc5ccn6ncnc6c5)c(C)c4F)ncnc3cn1)C2 [Example 20, 1-(endo-3-((4-((4-([1,2,4]Triazolo[1,5-a]pyridin-7-yloxy)-2-fluoro-3-methylphenyl)amino)pyrido[3,4-d]pyrimidin-6-yl)oxy)-8-azabicyclo[3.2.1]octan-8-yl)prop-2-en-1-one] | 15.5 | 100 | 100 | 3510 | 13.2 | 100 |
| Cc1cc(Nc2ncnc3ccc(NC4=NC(C)(C)CO4)cc23)ccc1Oc1ccn2ncnc2c1 [Tucatinib, tucatinib, reference compound] | – | 100 | – | – | – | – |
| C=CC(=O)N1[C@@H]2CC[C@H]1C[C@H](Oc1ccc3ncnc(Nc4ccc(Oc5ccc6c(c5)ncn6C)c(C)c4F)c3c1)C2 [Example 19, 1-(exo-3-((4-((2-Fluoro-3-methyl-4-((1-methyl-1H-benzo[d]imidazol-5-yl)oxy)phenyl)amino)quinazolin-6-yl)oxy)-8-azabicyclo[3.2.1]octan-8-yl)prop-2-en-1-one] | 27 | 100 | – | – | 14.9 | 100 |
| C=CC(=O)N1[C@@H]2CC[C@H]1C[C@H](Oc1cc3c(Nc4ccc(Oc5ccc6c(c5)ncn6C)c(C)c4)ncnc3cn1)C2 [Example 28, 1-(exo-3-((4-((3-Methyl-4-((1-methyl-1H-benzo[d]iimidazol-5-yl)oxy)phenyl)amino)pyrido[3,4-d]pyrimidin-6-yl)oxy)-8-azabicyclo[3.2.1]octan-8-yl)prop-2-en-1-one] | – | – | −1.76 | > 10000 | 18.1 | 100 |
| C=CC(=O)N1[C@@H]2CC[C@H]1C[C@H](Oc1cc3c(Nc4ccc(Oc5ccc6c(c5)ncn6C)c(C)c4F)ncnc3cc1OC)C2 [Example 15, 1-(exo-3-((4-((2-Fluoro-3-methyl-4-((1-methyl-1H-benzo[d]imidazol-5-yl)oxy)phenyl)amino)-7-methoxyquinazolin-6-yl)oxy)-8-azabicyclo[3.2.1]octan-8-yl)prop-2-en-1-one] | 19.4 | 100 | – | – | 14.9 | 100 |
| C=CC(=O)N1[C@@H]2CC[C@H]1C[C@@H](Oc1cc3c(Nc4ccc(Oc5ccn6ncnc6c5)c(C)c4F)ncnc3cc1OCC)C2 [Example 17, 1-(endo-3-((4-((4-([1,2,4]Triazolo[1,5-a]pyridin-7-yloxy)-2-fluoro-3-methylphenyl)amino)-7-ethoxyquinazolin-6-yl)oxy)-8-azabicyclo[3.2.1]octan-8-yl)prop-2-en-1-one] | 13.9 | 100 | – | – | 5.1 | 100 |
| C=CC(=O)N1[C@@H]2CC[C@H]1C[C@H](Oc1ccc3ncnc(Nc4ccc(Oc5cc6ncnn6cn5)c(C)c4)c3c1)C2 [Example 8, 1-(exo-3-((4-((4-([1,2,4]Triazolo[1,5-c]pyrimidin-7-yloxy)-3-methylphenyl)amino)quinazolin-6-yl)oxy)-8-azabicyclo[3.2.1]octan-8-yl)prop-2-en-1-one] | 15.7 | 100 | – | – | 6.3 | 100 |
| C=CC(=O)N1[C@@H]2CC[C@H]1C[C@H](Oc1cc3c(Nc4ccc(Oc5ccc6c(c5)ncn6C)c(C)c4F)ncnc3cn1)C2 [Example 27, 1-(exo-3-((4-((2-Fluoro-3-methyl-4-((1-methyl-1H-benzo[d]iimidazol-5-yl)oxy)phenyl)amino)pyrido[3,4-d]pyrimidin-6-yl)oxy)-8-azabicyclo[3.2.1]octan-8-yl)prop-2-en-1-one] | – | – | – | – | 12.5 | 100 |
| C=CC(=O)N1[C@@H]2CC[C@H]1C[C@H](Oc1ccc3ncnc(Nc4ccc(Oc5ccn6ncnc6c5)c(C)c4)c3c1)C2 [Example 9, 1-(exo-3-((4-((4-([1,2,4]Triazolo[1,5-a]pyridin-7-yloxy)-3-methylphenyl)amino)quinazolin-6-yl)oxy)-8-azabicyclo[3.2.1]octan-8-yl)prop-2-en-1-one] | 13.8 | 100 | – | – | 13.5 | 100 |
| C=CC(=O)N1[C@@H]2CC[C@H]1C[C@@H](Oc1ccc3ncnc(Nc4ccc(Oc5ccn6ncnc6c5)c(C)c4)c3c1)C2 [Example 1, 1-(endo-3-((4-((4-([1,2,4]Triazolo[1,5-a]pyridin-7-yloxy)-3-methylphenyl)amino)quinazolin-6-yl)oxy)-8-azabicyclo[3.2.1]octan-8-yl)prop-2-en-1-one] | 3.4 | 100 | 97 | 3740 | 4.1 | 100 |
| C=CC(=O)N1[C@@H]2CC[C@H]1C[C@@H](Oc1ccc3ncnc(Nc4ccc(Oc5ccc6c(c5)ncn6C)c(C)c4)c3c1)C2 [Example 2, 1-(endo-3-((4-((3-Methyl-4-((1-methyl-1H-benzo[d]imidazol-5-yl)oxy)phenyl)amino)quinazolin-6-yl)oxy)-8-azabicyclo[3.2.1]octan-8-yl)prop-2-en-1-one] | 24 | 100 | 99 | 2300 | 18.9 | 100 |
